{"source": "patent US7947869B2", "about": "“Methods for inducing cotton embryogenic callus” (Monsanto Technology LLC, priority 2007, dated 2011)", "type_in_all_cases": "cell-based, cotton (cv. Coker 130)", "key": {"[1]": {"system": "embryogenic cotton callus", "experiment": "Effect of brassinolide in TRP+ medium on production of embryos from embryogenic cotton callus", "description": "A brassinosteroid plant growth regulator was used to enhance cotton embryo formation. Brassinolide (i.e. 24-epibrassinolide; Super-Grow, Montreal, Calif.), at a concentration from 2 to 100 μM was added to TRP+ medium (Table 9). Embryogenic callus from the UMO medium (Table 8) was then cultured on TRP+ medium containing Brassinolide. […] Besides an increase in the overall production of embryos, many of the embryos produced from the brassinolide treatment were 5-6 mm long heart shaped embryos (more developed), whereas there were none at this stage in the control treatment. […]"}, "[2]": {"system": "embryogenic cotton callus", "experiment": "Effect of brassinolide on embryo production at 9% and 21% O2 levels", "description": "When embryogenic callus was placed on brassinolide containing TRP+ medium (Table 9) at either 9% or 21% O2, more embryos were produced in the brassinolide treatments at 9% than at 21% O2. Lower level of 10 μM brassinolide gave the greatest response at 9% O2 but 100 μM level of brassinolide was more useful in 21% O2. […] Different levels of O2 were created by using a PRO-OX 110 oxygen control according to manufacturer's instructions (BioSpherix, Redfield, N.Y.) in a growth chamber (e.g. Percival Scientific, Inc., Perry, Iowa). Results in Table 12 indicate that brassinolide promotes the growth and development of embryos from cotton embryogenic callus."}, "[3]": {"system": "cotton hypocotyl explants", "experiment": "Effect of ACC during callus induction or embryogenic callus induction step", "description": "An ethylene precursor, 1-aminocyclopropane-1-carboxylic acid (ACC) was added at the step of undifferentiated callus formation, and removed prior to embryogenesis, to speed up embryogenic callus formation.\nThree studies were performed to define the effect of ACC on enhancing embryogenic callus formation. In the first experiment summarized in Table 19, hypocotyl explants were placed on UMSEL medium containing different concentrations of ACC (Treatments 2-6), or containing no ACC (treatment 7). The plates were unwrapped and placed in two separate boxes (Treatments 2-6 in one box and Treatments 7-12 in another), and cultured at 28° C. with a photoperiod of 16 hr light/8 hr darkness. After four weeks of callus induction, the calli were transferred to UMO medium without ACC (Treatments 2-6), or to UMO plus different concentrations of ACC (Treatments 8-12) for embryogenic callus induction. The plates were wrapped with PARAFILM at this stage."}, "[4]": {"system": "Agrobacterium-inoculated cotton hypocotyl explants", "experiment": "Effect of ACC on embryogenic callus from transformed tissue (pMON15722, kanamycin selection)", "description": "Addition of ACC produced a similar enhancing effect on producing embryogenic callus from transformed tissue. The hypocotyl explants were inoculated with Agrobacterium containing a plant transformation vector pMON15722 having an expression unit conferring kanamycin tolerance. The explants were pre-soaked in 2-hr in MSO glucose medium (Table 3) before inoculation. After 2 days of co-culture at about 24° C., the inoculated hypocotyl pieces were placed on WPSEL medium containing 45 mg/L of kanamycin for 4 weeks for callus induction. After callus induction, the explants were again transferred to WPSEL medium for another 4 weeks. Different concentrations of ACC were incorporated in the medium at this step."}, "[5]": {"conditions": "2 μM brassinolide in TRP+ medium"}, "[6]": {"conditions": "5 μM brassinolide in TRP+ medium"}, "[7]": {"conditions": "10 μM brassinolide in TRP+ medium"}, "[8]": {"conditions": "15 μM brassinolide in TRP+ medium"}, "[9]": {"conditions": "ACC 0.01 mM at callus induction step (UMSEL), removed on UMO"}, "[10]": {"conditions": "ACC 0.1 mM at callus induction step (UMSEL)"}, "[11]": {"conditions": "ACC 0.5 mM at callus induction step (UMSEL)"}, "[12]": {"conditions": "ACC 1 mM at callus induction step (UMSEL)"}, "[13]": {"conditions": "ACC 5 mM at callus induction step (UMSEL)"}}, "data": [{"smiles": "CC(C)[C@@H](C)[C@@H](O)[C@H](O)[C@@H](C)[C@H]1CC[C@H]2[C@@H]3COC(=O)[C@H]4C[C@H](O)[C@H](O)C[C@]4(C)[C@H]3CC[C@]12C", "note": "[Brassinolide, 24-epibrassinolide]", "values": [{"measurement": "Embryo stages: 2-3 mm globules", "setting": "[1]; [5]", "result": 3}, {"measurement": "Embryo stages: 5-6 mm heart shaped", "setting": "[1]; [5]", "result": 0}, {"measurement": "Total embryos", "setting": "[1]; [5]", "result": 3}, {"measurement": "Embryo stages: 2-3 mm globules", "setting": "[1]; [6]", "result": 10}, {"measurement": "Embryo stages: 5-6 mm heart shaped", "setting": "[1]; [6]", "result": 8}, {"measurement": "Total embryos", "setting": "[1]; [6]", "result": 18}, {"measurement": "Embryo stages: 2-3 mm globules", "setting": "[1]; [7]", "result": 6}, {"measurement": "Embryo stages: 5-6 mm heart shaped", "setting": "[1]; [7]", "result": 11}, {"measurement": "Total embryos", "setting": "[1]; [7]", "result": 17}, {"measurement": "Embryo stages: 2-3 mm globules", "setting": "[1]; [8]", "result": 6}, {"measurement": "Embryo stages: 5-6 mm heart shaped", "setting": "[1]; [8]", "result": 9}, {"measurement": "Total embryos", "setting": "[1]; [8]", "result": 15}, {"measurement": "Number of Embryos Produced", "setting": "[2]; 10 μM brassinolide, 9% O2, 4 weeks", "result": 18}, {"measurement": "Number of Embryos Produced", "setting": "[2]; 10 μM brassinolide, 9% O2, 7 weeks", "result": 30}, {"measurement": "Number of Embryos Produced", "setting": "[2]; 10 μM brassinolide, 9% O2, 9 weeks", "result": 48}, {"measurement": "Number of Embryos Produced", "setting": "[2]; 10 μM brassinolide, 21% O2, 4 weeks", "result": 21}, {"measurement": "Number of Embryos Produced", "setting": "[2]; 10 μM brassinolide, 21% O2, 7 weeks", "result": 28}, {"measurement": "Number of Embryos Produced", "setting": "[2]; 10 μM brassinolide, 21% O2, 9 weeks", "result": 21}, {"measurement": "Number of Embryos Produced", "setting": "[2]; 50 μM brassinolide, 9% O2, 4 weeks", "result": 8}, {"measurement": "Number of Embryos Produced", "setting": "[2]; 50 μM brassinolide, 9% O2, 7 weeks", "result": 12}, {"measurement": "Number of Embryos Produced", "setting": "[2]; 50 μM brassinolide, 9% O2, 9 weeks", "result": 35}, {"measurement": "Number of Embryos Produced", "setting": "[2]; 50 μM brassinolide, 21% O2, 4 weeks", "result": 10}, {"measurement": "Number of Embryos Produced", "setting": "[2]; 50 μM brassinolide, 21% O2, 7 weeks", "result": 8}, {"measurement": "Number of Embryos Produced", "setting": "[2]; 50 μM brassinolide, 21% O2, 9 weeks", "result": 11}, {"measurement": "Number of Embryos Produced", "setting": "[2]; 100 μM brassinolide, 9% O2, 4 weeks", "result": 1}, {"measurement": "Number of Embryos Produced", "setting": "[2]; 100 μM brassinolide, 9% O2, 7 weeks", "result": 9}, {"measurement": "Number of Embryos Produced", "setting": "[2]; 100 μM brassinolide, 9% O2, 9 weeks", "result": 21}, {"measurement": "Number of Embryos Produced", "setting": "[2]; 100 μM brassinolide, 21% O2, 4 weeks", "result": 6}, {"measurement": "Number of Embryos Produced", "setting": "[2]; 100 μM brassinolide, 21% O2, 7 weeks", "result": 9}, {"measurement": "Number of Embryos Produced", "setting": "[2]; 100 μM brassinolide, 21% O2, 9 weeks", "result": 33}, {"measurement": "Brassinolide level giving the greatest response", "setting": "[2]; 9% O2", "result": 10, "unit": "µM"}, {"measurement": "Brassinolide level more useful", "setting": "[2]; 21% O2", "result": 100, "unit": "µM"}]}, {"smiles": "NC1(C(=O)O)CC1", "note": "[ACC, 1-aminocyclopropane-1-carboxylic acid]", "values": [{"measurement": "% EC at 7 week", "setting": "[3]; [9]", "result": 80, "unit": "%"}, {"measurement": "% EC at 9 week", "setting": "[3]; [9]", "result": 94, "unit": "%"}, {"measurement": "% EC at 9 week", "setting": "[3]; ACC 0.01 mM at embryogenic callus induction step (UMO)", "result": 35, "unit": "%"}, {"measurement": "% EC at 7 week", "setting": "[3]; [10]", "result": 50, "unit": "%"}, {"measurement": "% EC at 9 week", "setting": "[3]; [10]", "result": 90, "unit": "%"}, {"measurement": "% EC at 9 week", "setting": "[3]; ACC 0.1 mM at embryogenic callus induction step (UMO)", "result": 5, "unit": "%"}, {"measurement": "% EC at 7 week", "setting": "[3]; [11]", "result": 58, "unit": "%"}, {"measurement": "% EC at 9 week", "setting": "[3]; [11]", "result": 88, "unit": "%"}, {"measurement": "% EC at 9 week", "setting": "[3]; ACC 0.5 mM at embryogenic callus induction step (UMO)", "result": 10, "unit": "%"}, {"measurement": "% EC at 7 week", "setting": "[3]; [12]", "result": 28, "unit": "%"}, {"measurement": "% EC at 9 week", "setting": "[3]; [12]", "result": 62, "unit": "%"}, {"measurement": "% EC at 9 week", "setting": "[3]; ACC 1 mM at embryogenic callus induction step (UMO)", "result": 10, "unit": "%"}, {"measurement": "% EC at 9 week", "setting": "[3]; ACC 3 mM at embryogenic callus induction step (UMO)", "result": 0, "unit": "%"}, {"measurement": "% EC at 7 week", "setting": "[3]; [13]", "result": 0, "unit": "%"}, {"measurement": "% EC at 9 week", "setting": "[3]; [13]", "result": 0, "unit": "%"}, {"measurement": "% Pieces w/ EC after 6 weeks on UMO medium with Kanamycin", "setting": "[4]; ACC 10 μM during non-embryogenic callus growth on WPSEL", "result": 18.4, "unit": "%"}, {"measurement": "% Pieces w/ EC after 6 weeks on UMO medium with Kanamycin", "setting": "[4]; ACC 30 μM during non-embryogenic callus growth on WPSEL", "result": 22.1, "unit": "%"}, {"measurement": "% Pieces w/ EC after 6 weeks on UMO medium with Kanamycin", "setting": "[4]; ACC 60 μM during non-embryogenic callus growth on WPSEL", "result": 21.6, "unit": "%"}, {"measurement": "% Pieces w/ EC after 6 weeks on UMO medium with Kanamycin", "setting": "[4]; ACC 100 μM during non-embryogenic callus growth on WPSEL", "result": 26.5, "unit": "%"}, {"measurement": "% Pieces w/ EC after 6 weeks on UMO medium with Kanamycin", "setting": "[4]; ACC 150 μM during non-embryogenic callus growth on WPSEL", "result": 44.0, "unit": "%"}]}]}
